Assay results published in ChEMBL document CHEMBL1201862, “PubChem BioAssay data set” (2004).
The source made the active and inactive calls.

Columns and labels:
Caspase-7 = Caspase-7 (Homo sapiens, UniProt P55210); test: human caspase-7 inhibitors, dose response, selectivity assay for caspase-6 inhibitor project, biochemical, DEVD-R110 fluorescence, cherry-pick (AID 743295)
[1] = biological target: Small ubiquitin-related modifier 1 (Homo sapiens, UniProt P63165); test: inhibitors of SUMO1 peptide binding, dose response, biochemical, fluorescence polarization, uHTS hits (AID 624382); assay type: functional; conditions: read-out: IC50_Mean
Small ubiquitin-related modifier 1, sequence (P63165 whole entry): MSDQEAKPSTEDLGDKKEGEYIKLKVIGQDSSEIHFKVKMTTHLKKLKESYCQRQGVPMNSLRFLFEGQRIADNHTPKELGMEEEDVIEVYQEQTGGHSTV

[2] = biological target: T1, Histone-lysine N-methyltransferase NSD2 (Homo sapiens, UniProt O96028); assay type: biochemical
T1 sequence (O96028 whole entry): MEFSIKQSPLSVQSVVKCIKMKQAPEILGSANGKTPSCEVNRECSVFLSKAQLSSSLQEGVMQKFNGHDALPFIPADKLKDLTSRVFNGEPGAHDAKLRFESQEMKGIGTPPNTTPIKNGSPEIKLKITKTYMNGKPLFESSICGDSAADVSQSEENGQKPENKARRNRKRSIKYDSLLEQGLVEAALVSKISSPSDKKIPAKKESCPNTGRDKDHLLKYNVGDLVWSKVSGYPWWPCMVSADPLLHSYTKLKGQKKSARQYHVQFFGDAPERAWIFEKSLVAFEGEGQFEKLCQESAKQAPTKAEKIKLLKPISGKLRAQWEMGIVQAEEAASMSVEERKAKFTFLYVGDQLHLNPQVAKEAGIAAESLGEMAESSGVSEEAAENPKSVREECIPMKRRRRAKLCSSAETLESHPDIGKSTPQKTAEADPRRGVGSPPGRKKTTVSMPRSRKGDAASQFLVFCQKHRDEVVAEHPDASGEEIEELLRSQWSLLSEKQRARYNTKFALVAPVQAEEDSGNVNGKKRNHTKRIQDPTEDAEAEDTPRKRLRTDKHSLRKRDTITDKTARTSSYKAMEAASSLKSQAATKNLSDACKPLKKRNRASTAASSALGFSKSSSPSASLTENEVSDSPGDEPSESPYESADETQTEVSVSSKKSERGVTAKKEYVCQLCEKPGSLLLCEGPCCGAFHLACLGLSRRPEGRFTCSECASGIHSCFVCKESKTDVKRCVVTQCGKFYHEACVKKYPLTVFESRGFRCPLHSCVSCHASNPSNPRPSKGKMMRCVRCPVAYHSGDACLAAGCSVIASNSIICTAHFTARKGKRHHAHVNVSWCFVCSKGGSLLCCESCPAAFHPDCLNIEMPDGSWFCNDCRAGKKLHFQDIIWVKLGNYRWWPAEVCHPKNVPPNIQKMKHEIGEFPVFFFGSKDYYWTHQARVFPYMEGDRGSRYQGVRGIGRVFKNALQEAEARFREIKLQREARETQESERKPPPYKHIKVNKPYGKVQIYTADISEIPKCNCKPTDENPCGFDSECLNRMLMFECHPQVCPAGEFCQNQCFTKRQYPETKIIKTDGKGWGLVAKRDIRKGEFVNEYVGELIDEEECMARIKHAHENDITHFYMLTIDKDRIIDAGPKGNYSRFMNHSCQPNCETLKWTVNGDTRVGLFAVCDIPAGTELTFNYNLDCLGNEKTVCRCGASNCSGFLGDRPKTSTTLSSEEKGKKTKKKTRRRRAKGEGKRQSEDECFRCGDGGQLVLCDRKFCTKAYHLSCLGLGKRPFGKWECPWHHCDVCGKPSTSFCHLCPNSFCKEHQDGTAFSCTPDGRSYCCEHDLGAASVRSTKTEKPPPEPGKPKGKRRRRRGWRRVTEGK

[3] = biological target: Tyrosine-protein phosphatase non-receptor type 11 (Homo sapiens, UniProt Q06124); test: SHP2 phosphatase inhibition, dose response, selectivity assay for STEP inhibitor project, biochemical (AID 602367); assay type: functional; conditions: read-out: IC50_Mean
Tyrosine-protein phosphatase non-receptor type 11, sequence (Q06124 whole entry): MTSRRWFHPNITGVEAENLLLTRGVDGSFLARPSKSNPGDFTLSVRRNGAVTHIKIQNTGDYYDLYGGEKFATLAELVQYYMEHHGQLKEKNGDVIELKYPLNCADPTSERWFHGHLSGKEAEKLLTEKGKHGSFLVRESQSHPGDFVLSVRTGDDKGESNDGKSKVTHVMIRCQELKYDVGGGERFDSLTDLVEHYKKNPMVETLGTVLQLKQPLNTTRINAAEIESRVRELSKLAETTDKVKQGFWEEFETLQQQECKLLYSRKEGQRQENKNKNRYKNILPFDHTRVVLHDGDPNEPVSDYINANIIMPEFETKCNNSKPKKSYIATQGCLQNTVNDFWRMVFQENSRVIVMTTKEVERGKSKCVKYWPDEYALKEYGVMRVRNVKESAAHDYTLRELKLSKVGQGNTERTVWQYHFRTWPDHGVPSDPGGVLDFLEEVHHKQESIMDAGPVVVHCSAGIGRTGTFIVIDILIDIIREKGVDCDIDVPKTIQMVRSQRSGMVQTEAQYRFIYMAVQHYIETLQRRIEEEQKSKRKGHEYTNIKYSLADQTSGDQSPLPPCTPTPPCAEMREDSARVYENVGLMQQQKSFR

[4] = cytotoxicity toward NIH3T3 fibroblasts, dose response, counter-screen, cell-based, ATP luminescence, mouse fibroblasts (AID 2010); assay type: functional;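 note: cells exposed to compound for about 90 hours before reading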
Beta-galactosidase = Beta-galactosidase (Escherichia coli, UniProt Q8VNN2); assay type: functional
Beta-galactosidase, sequence (Q8VNN2 whole entry, the tested form may be a part): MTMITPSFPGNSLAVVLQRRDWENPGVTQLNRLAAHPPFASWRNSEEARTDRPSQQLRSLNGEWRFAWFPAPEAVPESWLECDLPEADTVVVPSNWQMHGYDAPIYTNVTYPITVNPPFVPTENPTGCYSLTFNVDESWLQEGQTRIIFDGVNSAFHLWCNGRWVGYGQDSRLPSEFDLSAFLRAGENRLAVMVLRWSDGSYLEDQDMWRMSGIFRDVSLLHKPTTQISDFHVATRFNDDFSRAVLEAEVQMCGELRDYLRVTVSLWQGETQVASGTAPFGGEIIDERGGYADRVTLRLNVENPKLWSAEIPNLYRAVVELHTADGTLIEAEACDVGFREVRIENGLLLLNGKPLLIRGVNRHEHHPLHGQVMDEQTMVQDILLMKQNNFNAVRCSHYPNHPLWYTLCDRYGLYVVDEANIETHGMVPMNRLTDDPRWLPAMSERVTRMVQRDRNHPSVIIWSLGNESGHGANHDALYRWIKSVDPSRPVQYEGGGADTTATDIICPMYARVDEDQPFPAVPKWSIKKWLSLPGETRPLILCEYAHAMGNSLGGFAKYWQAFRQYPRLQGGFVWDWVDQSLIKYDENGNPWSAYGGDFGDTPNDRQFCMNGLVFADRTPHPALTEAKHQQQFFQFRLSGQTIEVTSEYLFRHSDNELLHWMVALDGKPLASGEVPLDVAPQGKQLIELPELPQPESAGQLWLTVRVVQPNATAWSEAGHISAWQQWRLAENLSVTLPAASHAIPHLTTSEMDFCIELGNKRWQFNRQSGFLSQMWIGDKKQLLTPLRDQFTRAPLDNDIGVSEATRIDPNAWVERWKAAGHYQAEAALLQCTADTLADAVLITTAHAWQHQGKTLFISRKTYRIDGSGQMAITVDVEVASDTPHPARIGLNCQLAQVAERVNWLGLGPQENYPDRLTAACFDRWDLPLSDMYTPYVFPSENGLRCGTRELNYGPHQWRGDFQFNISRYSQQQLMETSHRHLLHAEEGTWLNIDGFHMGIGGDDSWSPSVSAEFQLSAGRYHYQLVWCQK

Fatty acid synthase = Fatty acid synthase (Homo sapiens, UniProt P49327); test: FAS thioesterase domain inhibitors, dose response, biochemical, endpoint fluorescence intensity, uHTS hits (AID 624327); assay type: functional;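 note: fluorescence from hydrolysis of an O-methyl fluorescein acyl ester substrate by the enzyme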
Fatty acid synthase, sequence (P49327 whole entry, the tested form may be a part): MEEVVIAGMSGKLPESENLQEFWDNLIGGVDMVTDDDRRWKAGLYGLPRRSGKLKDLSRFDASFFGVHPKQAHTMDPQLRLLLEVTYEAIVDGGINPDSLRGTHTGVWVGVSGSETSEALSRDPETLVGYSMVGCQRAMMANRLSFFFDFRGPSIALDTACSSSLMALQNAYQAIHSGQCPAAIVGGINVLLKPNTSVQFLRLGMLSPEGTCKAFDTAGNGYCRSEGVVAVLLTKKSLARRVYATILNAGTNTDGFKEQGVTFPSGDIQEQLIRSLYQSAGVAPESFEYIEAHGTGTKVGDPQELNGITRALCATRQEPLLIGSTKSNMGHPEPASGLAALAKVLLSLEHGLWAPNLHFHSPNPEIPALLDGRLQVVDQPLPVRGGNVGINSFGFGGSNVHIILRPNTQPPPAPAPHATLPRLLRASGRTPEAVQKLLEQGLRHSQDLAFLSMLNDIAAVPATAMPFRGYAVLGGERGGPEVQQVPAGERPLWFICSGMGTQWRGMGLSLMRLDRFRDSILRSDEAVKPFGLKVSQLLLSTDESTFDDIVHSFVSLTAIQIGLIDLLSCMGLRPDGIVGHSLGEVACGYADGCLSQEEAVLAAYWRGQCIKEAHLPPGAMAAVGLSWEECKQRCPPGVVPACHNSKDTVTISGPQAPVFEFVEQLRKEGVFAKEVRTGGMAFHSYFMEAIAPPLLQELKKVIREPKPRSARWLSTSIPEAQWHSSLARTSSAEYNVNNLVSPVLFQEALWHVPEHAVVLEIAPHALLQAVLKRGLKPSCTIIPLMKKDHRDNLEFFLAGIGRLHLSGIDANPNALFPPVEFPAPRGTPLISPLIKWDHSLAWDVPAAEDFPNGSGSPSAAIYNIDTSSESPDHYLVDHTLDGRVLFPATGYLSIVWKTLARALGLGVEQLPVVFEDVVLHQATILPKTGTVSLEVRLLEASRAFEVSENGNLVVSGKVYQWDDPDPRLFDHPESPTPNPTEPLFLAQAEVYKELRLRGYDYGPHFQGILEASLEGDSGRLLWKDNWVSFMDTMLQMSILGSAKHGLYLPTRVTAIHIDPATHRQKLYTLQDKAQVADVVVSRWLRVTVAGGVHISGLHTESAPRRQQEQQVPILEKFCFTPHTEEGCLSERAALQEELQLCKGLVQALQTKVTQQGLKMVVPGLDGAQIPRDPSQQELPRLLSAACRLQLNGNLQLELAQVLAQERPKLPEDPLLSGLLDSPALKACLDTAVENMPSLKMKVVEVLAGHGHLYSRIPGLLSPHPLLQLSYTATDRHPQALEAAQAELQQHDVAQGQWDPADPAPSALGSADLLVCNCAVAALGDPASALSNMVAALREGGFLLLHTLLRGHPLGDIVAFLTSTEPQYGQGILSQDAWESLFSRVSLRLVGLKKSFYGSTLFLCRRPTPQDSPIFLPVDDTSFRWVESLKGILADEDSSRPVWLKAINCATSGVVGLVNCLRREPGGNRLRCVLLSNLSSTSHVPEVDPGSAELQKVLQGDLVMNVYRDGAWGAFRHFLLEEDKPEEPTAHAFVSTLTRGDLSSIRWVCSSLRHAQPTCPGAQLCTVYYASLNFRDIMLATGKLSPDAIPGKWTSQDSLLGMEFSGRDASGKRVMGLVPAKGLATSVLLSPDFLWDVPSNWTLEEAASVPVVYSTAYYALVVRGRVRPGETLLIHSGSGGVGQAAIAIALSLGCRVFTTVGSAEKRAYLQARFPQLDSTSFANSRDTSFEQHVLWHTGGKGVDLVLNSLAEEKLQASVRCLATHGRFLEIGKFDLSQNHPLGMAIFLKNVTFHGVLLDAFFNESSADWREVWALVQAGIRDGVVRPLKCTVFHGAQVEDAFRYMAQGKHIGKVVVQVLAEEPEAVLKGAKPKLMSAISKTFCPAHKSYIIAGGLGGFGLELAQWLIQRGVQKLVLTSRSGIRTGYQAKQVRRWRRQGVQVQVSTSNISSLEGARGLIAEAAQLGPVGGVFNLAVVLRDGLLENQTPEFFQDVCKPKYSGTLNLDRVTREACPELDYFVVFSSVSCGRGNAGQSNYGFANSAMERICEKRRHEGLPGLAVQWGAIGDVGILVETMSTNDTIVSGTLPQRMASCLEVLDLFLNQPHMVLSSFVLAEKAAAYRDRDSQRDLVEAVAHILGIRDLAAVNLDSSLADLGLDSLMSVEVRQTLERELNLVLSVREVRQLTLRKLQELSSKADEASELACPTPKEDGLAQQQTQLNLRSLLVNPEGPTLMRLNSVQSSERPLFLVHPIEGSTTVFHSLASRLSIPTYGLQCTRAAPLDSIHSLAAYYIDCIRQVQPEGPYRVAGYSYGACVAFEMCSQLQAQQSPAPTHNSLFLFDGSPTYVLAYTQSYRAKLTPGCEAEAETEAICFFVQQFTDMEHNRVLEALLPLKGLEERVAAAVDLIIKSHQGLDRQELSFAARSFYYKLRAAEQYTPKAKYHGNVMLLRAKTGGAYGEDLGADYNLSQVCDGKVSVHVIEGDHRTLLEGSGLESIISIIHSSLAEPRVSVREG

Protein RecA = biological target: T2, Protein RecA (Mycobacterium tuberculosis, UniProt P9WHJ3); test: Fluorescence Cell-Free Homogeneous Dose Retest to Identify Inhibitors of RecA-Intein Splicing Activity. [Related pubchem assays (depositor defined):AID2097, AID2223, AID489010, AID492950]; assay type: functional
T2 sequence (P9WHJ3 whole entry): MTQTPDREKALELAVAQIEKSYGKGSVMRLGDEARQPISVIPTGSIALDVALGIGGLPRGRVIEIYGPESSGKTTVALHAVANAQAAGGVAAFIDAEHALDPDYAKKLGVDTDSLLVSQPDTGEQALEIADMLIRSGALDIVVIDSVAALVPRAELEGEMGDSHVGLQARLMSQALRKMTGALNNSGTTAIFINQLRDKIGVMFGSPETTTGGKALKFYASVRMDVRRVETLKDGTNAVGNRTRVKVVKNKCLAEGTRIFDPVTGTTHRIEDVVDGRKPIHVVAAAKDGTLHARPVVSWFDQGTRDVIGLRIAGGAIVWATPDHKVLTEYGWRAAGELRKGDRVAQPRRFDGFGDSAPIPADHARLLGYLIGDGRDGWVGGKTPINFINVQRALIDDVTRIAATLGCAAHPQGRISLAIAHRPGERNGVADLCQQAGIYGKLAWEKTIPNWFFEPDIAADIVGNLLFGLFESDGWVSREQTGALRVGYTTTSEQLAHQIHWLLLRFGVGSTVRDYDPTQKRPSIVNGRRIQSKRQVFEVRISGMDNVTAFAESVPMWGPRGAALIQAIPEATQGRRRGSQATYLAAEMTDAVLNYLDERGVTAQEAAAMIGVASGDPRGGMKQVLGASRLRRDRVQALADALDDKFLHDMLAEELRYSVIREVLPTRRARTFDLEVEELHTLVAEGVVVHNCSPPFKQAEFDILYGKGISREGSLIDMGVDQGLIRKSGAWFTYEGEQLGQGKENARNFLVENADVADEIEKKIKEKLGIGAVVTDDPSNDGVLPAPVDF

Caspase-7, sequence (P55210 24-198 limits assumed): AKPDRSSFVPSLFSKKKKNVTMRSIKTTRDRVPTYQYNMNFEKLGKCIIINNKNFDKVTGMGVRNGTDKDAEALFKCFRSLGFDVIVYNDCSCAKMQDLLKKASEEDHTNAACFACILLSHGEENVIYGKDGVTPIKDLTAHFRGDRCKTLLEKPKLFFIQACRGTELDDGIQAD
Caspase-7, sequence (P55210 207-303 limits assumed): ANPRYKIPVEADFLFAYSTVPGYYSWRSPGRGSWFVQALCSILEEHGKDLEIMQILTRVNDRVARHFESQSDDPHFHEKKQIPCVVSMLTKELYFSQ

For O=S(=O)(O)c1cc(O)c2cc(Nc3ccccc3)ccc2c1, the AC50 (Caspase-7) was 30.2 µM (active), the IC50 [1] was > 66.6 µM (inactive) and the AC50 [2] was 1.8 µM (active). The IC50 [3] was 0.335 µM (active).
In the case of O=[N+]([O-])c1c(Nc2ccccc2O)cc(Cl)c2nonc12, the EC50 [4] is reported as 3.68 µM (active), the EC50 (Beta-galactosidase) is reported as > 31.5 µM (inactive) and the IC50 (Fatty acid synthase) is reported as 14.6 µM (active). The EC50 (Protein RecA) was 1.21 µM (active).
